The subject of one data set is HEK-293 cells. Kind of data set: Resazurin high throughput proliferation assay, HEK-293. Particulars: for effect on HEK-293 proliferation (RFU, resazurin): versus base medium with 1% FBS, each ligand at three concentrations. It counts as cell-based, human. On the procedure: Resazurin is a metabolic dye which is converted to a fluorescent product. The greater the amount of the fluorescent product that is generated, the more metabolism, which directly correlates with cell number.
In this assay, resazurin was added to HEK-293 cells plated in each well of a 24-well assay plate containing a test medium containing one of the 16 ligands corresponding to the positive growth factors/cytokines and incubated at 37° C. After a 30 minute incubation, the plate was analyzed on a standard fluorescence plate reader. A higher RFU value from the plate reader translates to a higher cell density in the wells.
Briefly, the 16 ligands corresponding to positive growth factor/cytokine receptors were tested in the resazurin assay, each ligand at three different concentrations. The graphical representations of the RFU values observed for each factor, shown in FIGS. 3 and 4, include the base medium (with 1% FBS) shown as the pink line. The other 3 lines on each graph represent the three (3) concentrations of growth factor tested in the assay. […] Finally, some factors had no effect on the proliferation of the HEK-293 culture (FIG. 3A-3D).
(§1) Cells were plated in each well of a 24-well tissue culture treated plate containing 1 ml of a base medium. The base medium contained the lowest amount of FBS required to maintain approximately half-maximal growth of the given cell type. Test conditions were performed in triplicate, with each test compound added to the base medium at three different concentrations. The cells were allowed to grow until they reached approximately 33% confluent. At this point, 100 μl of the resazurin solution from a resazurin based in vitro toxicology kit (Sigma-Aldrich Co., Product No. TOX-8) was added to each well. After sufficient incubation time to convert some of the resazurin, the fluorescence was measured on a HTS 7000 Plus BioAssay Reader (Perkin-Elmer, Boston, Mass.). Readings were taken once a day until the culture was confluent (typically about 4 days). A plate with base medium only (no cells) was used as a blank and subtracted from the RFU reading to establish the final RFU values.

Another data set has as its system WI-38 cells. Kind of data set: Proliferation assay (resazurin), WI-38. It counts as cell-based, human. The settings on record: single factor added to base medium.
From the text: In order to test the possibility of using the method as applied to HEK-293 cells to identify pathways in other cell lines, the normal human fibroblast, WI-38 was chosen. These cells are typically grown in a base medium containing anywhere from 3-10% FBS.
Of the initial 17 receptors gleaned from the microarray, 12 ligands were chosen for testing. These ligands were chosen in the same way as the ligands for the HEK-293 cells, based on signal versus controls as well as based on knowledge of the various factors.
Signaling within a cell for increased growth can be stimulated in a variety of different ways. Combinations of the 4 chosen factors as listed above we added to cell culture medium to determine if the addition of more than 1 of the positive ligands would produce an increased amount of proliferation, or if the ligands would all stimulate the same downstream pathways, leading to no added benefit. This method allowed for the formulation of cell culture medium that it had not been possible to formulate prior to these assays.
as §1

Data set [1] has as its system CHO-AP cells. Put plainly: Proliferation assay, CHO-AP. In kind it is cell-based, Chinese hamster. The settings on record: suspension culture in serum-free CHO medium. As to the method: (§2) In order to further test the possibility of using the method as applied to HEK-293 cells to identify pathways in other cell lines, Chinese hamster ovary (CHO) cells were run on a microarray. Cells from the CHO-AP line produce alkaline phosphatase (AP). These cells are grown in a suspension culture in a serum-free CHO medium (Sigma-Aldrich Co., Product No. C5467).
Although the cDNA array from Takara is designed with human sequences, the array was probed using cDNA made from mRNA from the CHO cells. This attempt generated 22 positive receptors, of which 16 were tested (Table 6).
as §1, with “The cells were allowed to grow until they reached approximately 33% confluent. At this point, 100 μl of the resazurin solution from a resazurin based in vitro toxicology kit (Sigma-Aldrich Co., Product No. TOX-8) was added to each well.” left out

Data set [2] has as its system CHO-AP cells. Put plainly: Alkaline phosphatase production assay, CHO-AP. It counts as cell-based, Chinese hamster. The settings on record: suspension culture in serum-free CHO medium. On the procedure: as §2
On day 7 of the assay, the contents of each well were collected into 1.5 ml microfuge tubes. The cell suspensions were centrifuged at 16,000 rpm for five minutes. The supernatants were collected in 2 ml cryovials and the cell pellets were discarded. Each supernatant was diluted 1:10 and then assayed for the presence of Alkaline Phosphatase using the Alkaline Phosphatase Reporter Gene Assay Kit, Fluorescence (Product AP-F).

The values that follow come from patent US20040265880A1, “Genomic and proteomic approaches for the development of cell culture medium” (Sigma-Aldrich Co., priority 2003, published 2004).

“Also recorded” adds a separate entry of the source.

In the case of `CCCCC/C=C\C/C=C\C/C=C\C/C=C\CCCC(=O)O` [arachidonic acid, reference compound], the “effect on proliferation of HEK-293 cells (PKC pathway stimulation, Example 4)” value in the data set on HEK-293 cells (FIG. 10) was “positive effect”.
Turning to basic fibroblast growth factor [bFGF], the “effect on HEK-293 proliferation (RFU, resazurin)” value (from here on “effect on HEK-293 proliferation”) in the data set on HEK-293 cells is reported as “significant effect”. Further, the figures for the “effect on proliferation of WI-38 cells (RFU)” value (from here on “effect … (RFU)”) in the data set with WI-38 cells and in the data set with WI-38 cells (listed as basic fibroblast growth factor) were “significant increased proliferation” and “positive effects”, respectively.
Consider “epidermal growth factor [EGF, growth factor, ligand of EGF receptor]”, for which the “effect on HEK-293 proliferation” value in the data set on HEK-293 cells was “significant effect”.
For the compound interleukin-1 [IL-1], the “effect … (RFU)” value with WI-38 cells is “significant increased proliferation”; with WI-38 cells (listed as interleukin-1) it was “positive effects”. Further, the “effect on proliferation of CHO-AP cells” value in the data set with CHO-AP cells [1] is listed as “positive effects”. Besides, the “productivity of alkaline phosphatase by CHO-AP cells” value in the data set with CHO-AP cells [2] is given as “increased the productivity; also recorded: positive effects”.
Turning to platelet-derived growth factor [PDGF], the “effect … (RFU)” value is “significant increased proliferation” in the data set on WI-38 cells and “positive effects” in the data set with WI-38 cells (listed as platelet-derived growth factor AB).
Consider stromal cell-derived factor 1a [SDF1α], for which the “effect on HEK-293 proliferation” value in the data set on HEK-293 cells is recorded as “significant effect”. Besides, the “effect … (RFU)” value was “significant increased proliferation” in the data set with WI-38 cells and “positive effects” with WI-38 cells (listed as stromal cell-derived factor 1 a).
